Assay results as given in ChEMBL document CHEMBL1275543, “Proposed MIC and disk diffusion microbiological cutoffs and spectrum of activity of retapamulin, a novel topical antimicrobial agent” (2008).
Values after ≈ are worked out from the molar mass of the structure shown.

Assays:
Type in all cases: functional
[1] = tested on: Streptococcus viridans; test: Antibacterial activity against Streptococcus viridans
[2] = tested on: Staphylococcus; test: Antibacterial activity against methicillin resistant coagulase-negative Staphylococcus
[3] = tested on: Staphylococcus aureus; test: Antibacterial activity against methicillin sensitive Staphylococcus aureus
[4] = tested on: Streptococcus pyogenes; test: Antibacterial activity against Streptococcus pyogenes
[5] = tested on: Enterococcus; test: Antibacterial activity against Enterococcus species
[6] = Antibacterial activity against gram-negative Bacilli species
[7] = tested on: Staphylococcus aureus; test: Antibacterial activity against vancomycin intermediate Staphylococcus aureus
[8] = tested on: Streptococcus agalactiae; test: Antibacterial activity against Streptococcus agalactiae
[9] = Antibacterial activity against beta-hemolytic Streptococcus group C; details: Streptococcus sp. 'group C'
[10] = tested on: Staphylococcus; test: Antibacterial activity against methicillin sensitive coagulase-negative Staphylococcus
[11] = Antibacterial activity against beta-hemolytic Streptococcus group G; details: Streptococcus sp. 'group G'
[12] = tested on: Staphylococcus aureus; test: Antibacterial activity against methicillin resistant Staphylococcus aureus
[13] = tested on: Staphylococcus aureus; test: Antibacterial activity against Staphylococcus aureus
[14] = tested on: Staphylococcus; test: Ratio of MBC90 to MIC90 for coagulase-negative Staphylococcus
[15] = tested on: Staphylococcus aureus; test: Ratio of MBC90 to MIC90 for Staphylococcus aureus
[16] = tested on: Streptococcus pyogenes; test: Ratio of MBC90 to MIC90 for Streptococcus pyogenes
[17] = tested on: Staphylococcus; test: Antibacterial activity against coagulase-negative Staphylococcus

C/C(=C\C(=O)OCCCCCCCCC(=O)O)C[C@@H]1OC[C@H](C[C@@H]2O[C@H]2[C@@H](C)[C@H](C)O)[C@@H](O)[C@H]1O [MUPIROCIN]
MIC50 [1]: 1 µg/mL (≈ 2 µM) | MIC90 [1]: 2 µg/mL (≈ 3.99 µM) | MIC50 [2]: 0.25 µg/mL (≈ 0.499 µM) | MIC90 [2]: > 32 µg/mL | MIC50 [3]: 0.25 µg/mL (≈ 0.499 µM) | MIC90 [3]: 0.5 µg/mL (≈ 0.999 µM) | MIC50 ([4]; Streptococcus pyogenes): 0.12 µg/mL (≈ 0.24 µM) | MIC90 ([4]; Streptococcus pyogenes): 0.25 µg/mL (≈ 0.499 µM) | MIC50 [5]: 32 µg/mL (≈ 63.9 µM) | MIC90 [5]: > 32 µg/mL | MIC50 [6]: > 32 µg/mL | MIC90 [6]: > 32 µg/mL | MIC50 [7]: 0.25 µg/mL (≈ 0.499 µM) | MIC90 [7]: 1 µg/mL (≈ 2 µM) | MIC50 [8]: 1 µg/mL (≈ 2 µM) | MIC90 [8]: 2 µg/mL (≈ 3.99 µM) | MIC50 [9]: 0.5 µg/mL (≈ 0.999 µM) | MIC90 [9]: 1 µg/mL (≈ 2 µM) | MIC50 [10]: 0.25 µg/mL (≈ 0.499 µM) | MIC90 [10]: 32 µg/mL (≈ 63.9 µM) | MIC50 [11]: 0.25 µg/mL (≈ 0.499 µM) | MIC90 [11]: 0.5 µg/mL (≈ 0.999 µM) | MIC50 [12]: 0.25 µg/mL (≈ 0.499 µM) | MIC90 [12]: 2 µg/mL (≈ 3.99 µM)

C=C[C@]1(C)C[C@@H](OC(=O)CS[C@@H]2C[C@H]3CC[C@@H](C2)N3C)[C@]2(C)[C@H](C)CC[C@]3(CCC(=O)[C@H]32)[C@@H](C)[C@@H]1O [RETAPAMULIN]
Activity [13]: 128 µg/mL | Ratio [14]: 512 | Ratio [15]: 1024 | MIC50 [1]: 0.06 µg/mL (≈ 0.116 µM) | MIC90 [1]: 0.25 µg/mL (≈ 0.483 µM) | MIC50 [2]: 0.06 µg/mL (≈ 0.116 µM) | MIC90 [2]: 0.12 µg/mL (≈ 0.232 µM) | MIC50 [3]: 0.12 µg/mL (≈ 0.232 µM) | MIC90 [3]: 0.12 µg/mL (≈ 0.232 µM) | Activity [4]: 16 µg/mL | MIC ([4]; Streptococcus pyogenes): 0.016 µg/mL (≈ 0.0309 µM) | MIC50 ([4]; Streptococcus pyogenes): 0.016 µg/mL (≈ 0.0309 µM) | MIC90 ([4]; Streptococcus pyogenes): 0.03 µg/mL (≈ 0.0579 µM) | MIC50 [5]: 64 µg/mL (≈ 124 µM) | MIC90 [5]: 128 µg/mL (≈ 247 µM) | Ratio [16]: 256 | MIC50 [6]: 256 µg/mL (≈ 494 µM) | MIC90 [6]: > 512 µg/mL | MIC50 [7]: 0.06 µg/mL (≈ 0.116 µM) | MIC90 [7]: 0.12 µg/mL (≈ 0.232 µM) | MIC50 [8]: 0.03 µg/mL (≈ 0.0579 µM) | MIC90 [8]: 0.03 µg/mL (≈ 0.0579 µM) | MIC [9]: 0.016 µg/mL (≈ 0.0309 µM) | MIC50 [9]: 0.016 µg/mL (≈ 0.0309 µM) | MIC90 [9]: 0.03 µg/mL (≈ 0.0579 µM) | MBC [17]: 64 µg/mL (≈ 124 µM) | MIC50 [10]: 0.12 µg/mL (≈ 0.232 µM) | MIC90 [10]: 4 µg/mL (≈ 7.73 µM) | MIC50 [11]: 0.03 µg/mL (≈ 0.0579 µM) | MIC90 [11]: 0.06 µg/mL (≈ 0.116 µM) | MIC50 [12]: 0.12 µg/mL (≈ 0.232 µM) | MIC90 [12]: 0.12 µg/mL (≈ 0.232 µM)
